As usually defined, the IC50 is the point on the concentration scale where inhibition reaches its midpoint.

Bounds are passed on as bounds.

These results are taken from patent publication US20170121315A1, “HETEROBICYCLICALLY SUBSTITUTED 4-OXOBUTANE ACID DERIVATIVES AND USE THEREOF” (priority 2014, published 2017).

Data set [1] has as its target T1, human macrophage elastase (HME/hMMP-12) (Homo sapiens, UniProt P39900).
T1 construct: purchased R&D Systems 917-MP
As to the kind of experiment: In vitro HME inhibition test (standard or high-sensitivity). The data set is classed as biochemical. The note with it: in some cases mean values, rounded to two significant figures. The method, boiled down: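 Autoactivated HME (0.5 nM; high-sensitivity format 0.05 nM, ~16 h) with 5 μM quenched Mca-PLGLEEA-Dap(Dnp)-NH2 substrate in HEPES pH 7.4, NaCl, CaCl2, ZnCl2, EDTA, Brij buffer, 2 h at 37° C. Fluorescence at ex 323/em 393 nm; IC50 from signal versus concentration.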

In a further data set the target is T2, MMP-1 (Homo sapiens, UniProt P03956).
T2 construct: purchased R&D Systems 901-MP
T2 sequence (P03956 100-469): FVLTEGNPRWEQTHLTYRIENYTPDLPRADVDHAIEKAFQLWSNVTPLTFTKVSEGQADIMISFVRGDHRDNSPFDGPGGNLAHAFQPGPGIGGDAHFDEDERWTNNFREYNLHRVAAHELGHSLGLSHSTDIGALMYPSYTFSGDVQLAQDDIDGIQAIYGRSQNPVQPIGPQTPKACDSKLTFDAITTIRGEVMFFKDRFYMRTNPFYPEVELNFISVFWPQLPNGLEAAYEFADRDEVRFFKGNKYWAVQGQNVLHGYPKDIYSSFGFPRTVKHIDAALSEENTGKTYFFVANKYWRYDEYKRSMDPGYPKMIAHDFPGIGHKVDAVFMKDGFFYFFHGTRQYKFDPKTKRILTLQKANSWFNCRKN
Description: In vitro MMP-1 inhibition test. The note with it: human MMP-1. It is filed as biochemical. The text has this: (§1) The MMP-mediated amidolytic cleavage of a suitable peptide substrate leads to an increase in fluorescent light here too. The signal intensity of the fluorescent light is directly proportional to the enzyme activity. The active concentration of a test compound at which half the enzyme is inhibited (50% signal intensity of the fluorescent light) is reported as the IC50 value.
(§2) Recombinant MMP-1 (R&D Systems, 901-MP) is chemically activated in accordance with the manufacturer's instructions using APMA. 1 μl of the test compound to be analysed (as a solution in DMSO, suitable concentrations e.g. 1 nM to 30 μM) is pipetted into 24 μl of activated enzyme (final concentration e.g. 2 nM) in reaction buffer (50 mM Tris/HCl pH 7.5, 10 mM CaCl2, 150 mM NaCl, 0.05% Brij®-35) in a white 384-hole microtiter plate (MTP). The enzymatic reaction is started by adding the intramolecularly quenched Mca-Pro-Leu-Gly-Leu-Dpa(Dnp)-Ala-Arg-NH2 substrate (final concentration e.g. 10 μM; R&D Systems, ES-001), so as to result in a total test volume of 50 μl. The course of the MMP-1 reaction is measured by measuring the fluorescence intensity (excitation 320 nm, emission 410 nm) over a suitable period of time (e.g. over 120 min at a temperature of 32° C.).

The target of a further data set is T3, MMP-9 (Homo sapiens, UniProt P14780).
T3 construct: purchased R&D Systems 911-MP
T3 sequence (P14780 107-707 limits assumed): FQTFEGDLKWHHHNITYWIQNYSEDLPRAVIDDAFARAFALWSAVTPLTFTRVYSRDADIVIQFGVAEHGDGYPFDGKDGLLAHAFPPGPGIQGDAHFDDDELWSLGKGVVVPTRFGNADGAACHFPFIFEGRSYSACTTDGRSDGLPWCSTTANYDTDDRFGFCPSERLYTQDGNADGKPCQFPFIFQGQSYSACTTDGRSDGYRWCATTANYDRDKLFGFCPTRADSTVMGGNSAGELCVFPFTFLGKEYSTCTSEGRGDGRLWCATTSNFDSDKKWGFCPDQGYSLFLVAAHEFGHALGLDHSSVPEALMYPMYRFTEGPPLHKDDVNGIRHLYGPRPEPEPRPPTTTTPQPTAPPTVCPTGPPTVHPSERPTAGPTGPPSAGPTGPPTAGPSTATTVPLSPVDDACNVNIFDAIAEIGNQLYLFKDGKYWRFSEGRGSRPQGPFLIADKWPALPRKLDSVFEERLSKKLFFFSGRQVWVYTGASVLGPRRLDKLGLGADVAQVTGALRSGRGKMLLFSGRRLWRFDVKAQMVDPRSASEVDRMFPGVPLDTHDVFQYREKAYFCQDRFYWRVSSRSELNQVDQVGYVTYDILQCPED
As to the kind of experiment: In vitro MMP-9 inhibition test. It is filed as biochemical. The note with it: human MMP-9.
Source text: as §1
as §2, with “Recombinant MMP-9” for “Recombinant MMP-1”, “Systems, 911-MP)” for “Systems, 901-MP)”, “e.g. 0.1” for “e.g. 2”, “the MMP-9” for “the MMP-1”

The next data set has as its system rat hepatocytes. As to the kind of experiment: Hepatocyte assay for determination of metabolic stability. The data set is classed as in vitro ADME. Conditions: after incubation with rat hepatocytes. On the procedure: The metabolic stability of test compounds towards hepatocytes is determined by incubating the compounds at low concentrations (preferably below or around 1 μM) and at low cell counts (preferably at 1*10^6 cells/ml) in order to ensure maximum linearity of kinetic conditions in the experiment. Seven samples from the incubation solution are taken for the LC-MS analysis within a fixed time pattern, in order to determine the half-life (i.e. the degradation) of the particular compound. This half-life is used to calculate various “Clearance” parameters (CL) and “Fmax” values (see below).
The CL and Fmax values are a measure of the phase 1 and phase 2 metabolism of the compounds in the hepatocytes. In order to minimize the influence of the organic solvent on the enzymes in the incubation batches, the concentration thereof is generally limited to 1% (acetonitrile) or 0.1% (DMSO).
For all species and breeds, a hepatocyte cell count in the liver of 1.1*10^8 cells/g of liver is expected.

T1 sequence (P39900 106-470): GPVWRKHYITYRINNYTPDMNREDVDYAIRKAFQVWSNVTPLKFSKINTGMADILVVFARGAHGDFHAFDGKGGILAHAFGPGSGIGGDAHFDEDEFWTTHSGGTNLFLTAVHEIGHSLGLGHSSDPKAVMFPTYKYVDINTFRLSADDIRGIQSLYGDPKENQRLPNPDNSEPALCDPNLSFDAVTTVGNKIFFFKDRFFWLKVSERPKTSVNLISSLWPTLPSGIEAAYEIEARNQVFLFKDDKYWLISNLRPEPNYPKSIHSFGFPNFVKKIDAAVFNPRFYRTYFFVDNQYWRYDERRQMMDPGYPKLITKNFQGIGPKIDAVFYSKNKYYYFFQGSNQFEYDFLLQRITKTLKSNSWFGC

On to `O=C(CC(CCn1nnc2ccccc2c1=O)C(=O)O)c1cc2cc(OCC3CCOCC3)ccc2o1` (racemic) [Example 5, (+/−)-4-Oxo-2-[2-(4-oxo-1,2,3-benzotriazin-3(4H)-yl)ethyl]-4-[5-(tetrahydro-2H-pyran-4-ylmethoxy)-1-benzofur-2-yl]butanoic acid], for which the IC50 is 2.1 nM in data set [1], greater than 40000 nM on MMP-1 and 9100 nM at MMP-9. Further, the “CLblood (calculated blood clearance, well-stirred)” value with rat hepatocytes was 27 mL/min/kg. Also, the “Fmax (maximum possible bioavailability after oral administration, well-stirred)” value with rat hepatocytes was 61.4%.

As for `O=C(O)[C@@H]1[C@@H](Cn2nnc3ccc(C(F)(F)F)cc3c2=O)CC[C@H]1C(=O)c1cc2cc(OCCc3ccccc3)ccc2o1` (single isomer, unassigned; enantiomer 2) [Example 159, (+)-(1RS,2SR,5RS)-2-{[4-Oxo-6-(trifluoromethyl)-1,2,3-benzotriazin-3(4H)-yl]methyl}-5-{[5-(2-phenylethoxy)-1-benzofur-2-yl]carbonyl}cyclopentanecarboxylic acid (enantiomer 2)], the IC50 in data set [1] was 0.063 nM; against MMP-1, greater than 40000 nM; at MMP-9, 680 nM. For the same compound, in the data set on rat hepatocytes, the “CLblood (calculated blood clearance, well-stirred)” value is 10.8 mL/min/kg. Moreover, the “Fmax (maximum possible bioavailability after oral administration, well-stirred)” value with rat hepatocytes is 84.5%.

Consider `O=C(CC(CCn1nnc2ccccc2c1=O)C(=O)O)c1cc2ccc(OCC3CC3)cc2s1` (single isomer, unassigned; (+)) [Example 112, (+)-4-[6-(Cyclopropylmethoxy)-1-benzothiophen-2-yl]-4-oxo-2-[2-(4-oxo-1,2,3-benzotriazin-3(4H)-yl)ethyl]butanoic acid], for which the 50% inhibitory concentration (IC50) in data set [1] was 2.2 nM; against MMP-1 it was greater than 40000 nM; on MMP-9, 590 nM. The “CLblood (calculated blood clearance, well-stirred)” value with rat hepatocytes was 33.2 mL/min/kg. Also, the “Fmax (maximum possible bioavailability after oral administration, well-stirred)” value in the data set on rat hepatocytes is recorded as 52.5%.

`O=C(CC(CCn1nnc2ccc(C(F)(F)F)cc2c1=O)C(=O)O)c1noc2cc(OCc3ccccc3)ccc12` (racemic) [Example 154, (+/−)-4-[6-(Benzyloxy)-1,2-benzoxazol-3-yl]-4-oxo-2-{2-[4-oxo-6-(trifluoromethyl)-1,2,3-benzotriazin-3(4H)-yl]ethyl}butanoic acid]: the values for the IC50 (in data set [1]; against MMP-1; against MMP-9) were 0.75 nM, greater than 40000 nM and 250 nM, respectively. Besides, the “CLblood (calculated blood clearance, well-stirred)” value with rat hepatocytes is 20.3 mL/min/kg. In the data set with rat hepatocytes, the “Fmax (maximum possible bioavailability after oral administration, well-stirred)” value is on record as 70.9%.

For `O=C(C[C@H](CCn1nnc2ccccc2c1=O)C(=O)O)c1noc2cc(OCC3CCOCC3)ccc12` (single isomer, unassigned; enantiomer 2) [Example 135], the IC50 was 0.16 nM in data set [1], greater than 40000 nM on MMP-1 and 1700 nM against MMP-9. Further, in the data set on rat hepatocytes, the “CLblood (calculated blood clearance, well-stirred)” value is 22.7 mL/min/kg. Moreover, the “Fmax (maximum possible bioavailability after oral administration, well-stirred)” value with rat hepatocytes turned out to be 67.5%.

As to `O=C(CC(CCn1nnc2ccc(C(F)(F)F)cc2c1=O)C(=O)O)c1noc2cc(OCC3CCOCC3)ccc12` (racemic) [Example 155, (+/−)-4-Oxo-2-{2-[4-oxo-6-(trifluoromethyl)-1,2,3-benzotriazin-3(4H)-yl]ethyl}-4-[6-(tetrahydro-2H-pyran-4-ylmethoxy)-1,2-benzoxazol-3-yl]butanoic acid], the IC50 was 0.39 nM in data set [1], greater than 40000 nM against MMP-1 and 2800 nM against MMP-9. Also, the “CLblood (calculated blood clearance, well-stirred)” value in the data set on rat hepatocytes was 20.2 mL/min/kg. Also, the “Fmax (maximum possible bioavailability after oral administration, well-stirred)” value in the data set with rat hepatocytes was determined as 71.1%.

As for `O=C(CC(CCn1nnc2ccccc2c1=O)C(=O)O)c1cc2ccc(OCCc3ccccc3)cc2o1` (racemic) [Example 73, (+/−)-4-Oxo-2-[2-(4-oxo-1,2,3-benzotriazin-3(4H)-yl)ethyl]-4-[6-(2-phenylethoxy)-1-benzofur-2-yl]butanoic acid], the IC50 in data set [1] was 2.8 nM; at MMP-1 it was greater than 40000 nM; against MMP-9, 2200 nM. Further, in the data set with rat hepatocytes, the “CLblood (calculated blood clearance, well-stirred)” value is 23.2 mL/min/kg. Besides, the “Fmax (maximum possible bioavailability after oral administration, well-stirred)” value with rat hepatocytes is recorded as 66.9%.

As for `O=C(CC(CCn1nnc2ccccc2c1=O)C(=O)O)c1noc2cc(OCc3ccc(F)cc3)ccc12` (racemic) [Example 136, (+/−)-4-{6-[(4-Fluorobenzyl)oxy]-1,2-benzoxazol-3-yl}-4-oxo-2-[2-(4-oxo-1,2,3-benzotriazin-3(4H)-yl)ethyl]butanoic acid], the IC50 in data set [1] was 0.63 nM; against MMP-1 it was greater than 40000 nM; against MMP-9, 190 nM. Also, the “CLblood (calculated blood clearance, well-stirred)” value in the data set with rat hepatocytes is 12.2 mL/min/kg. In addition, the “Fmax (maximum possible bioavailability after oral administration, well-stirred)” value in the data set on rat hepatocytes is on record as 82.7%.

For `O=C(CC(CCn1nnc2ccccc2c1=O)C(=O)O)c1noc2cc(OCCc3ccccc3)ccc12` (racemic) [Example 144, (+/−)-4-Oxo-2-[2-(4-oxo-1,2,3-benzotriazin-3(4H)-yl)ethyl]-4-[6-(2-phenylethoxy)-1,2-benzoxazol-3-yl]butanoic acid], the IC50 in data set [1] is 1.4 nM; against MMP-1, greater than 40000 nM; at MMP-9, 760 nM. For the same compound, the “CLblood (calculated blood clearance, well-stirred)” value in the data set on rat hepatocytes was 29 mL/min/kg. The “Fmax (maximum possible bioavailability after oral administration, well-stirred)” value in the data set on rat hepatocytes is on record as 58.6%.

Take `O=C(CC(CCn1nnc2ccccc2c1=O)C(=O)O)c1noc2cc(OCc3ccccc3)ccc12` (racemic) [Example 145, (+/−)-4-[6-(Benzyloxy)-1,2-benzoxazol-3-yl]-4-oxo-2-[2-(4-oxo-1,2,3-benzotriazin-3(4H)-yl)ethyl]butanoic acid]: the IC50 is 0.71 nM in data set [1], greater than 40000 nM on MMP-1 and 170 nM on MMP-9. Moreover, the “CLblood (calculated blood clearance, well-stirred)” value in the data set with rat hepatocytes is 25.5 mL/min/kg. For the same compound, in the data set on rat hepatocytes, the “Fmax (maximum possible bioavailability after oral administration, well-stirred)” value came to 63.7%.

With `CCCCCOc1ccc2c(C(=O)CC(CCn3nnc4ccccc4c3=O)C(=O)O)noc2c1` (racemic) [Example 140, (+/−)-4-Oxo-2-[2-(4-oxo-1,2,3-benzotriazin-3(4H)-yl)ethyl]-4-[6-(pentyloxy)-1,2-benzoxazol-3-yl]butanoic acid], the IC50 in data set [1] was 0.28 nM; against MMP-1, greater than 40000 nM; at MMP-9 it was 43 nM. The “CLblood (calculated blood clearance, well-stirred)” value with rat hepatocytes is 24.8 mL/min/kg. Besides, the “Fmax (maximum possible bioavailability after oral administration, well-stirred)” value in the data set with rat hepatocytes is 64.5%.
